In patent publication US11998539B2, “Substituted aminoquinolones as DGKalpha inhibitors for immune activation” (Bayer Aktiengesellschaft, priority 2019, dated 2024):

These molecules were tested against DGKα (Homo sapiens (Human), UniProt P23743) (assay: Human DGKα kinase activity inhibition assay (ADP-Glo)). Conditions: recombinant full-length human DGKα, 55 μM ATP, 7 μM 1,2-dioleoyl-sn-glycerol, read-out: IC50 values of examples in in vitro human DGKa kinase activity inhibition assays.
DGKα, sequence (P23743 other isoform, or with tags, fused parts or gaps): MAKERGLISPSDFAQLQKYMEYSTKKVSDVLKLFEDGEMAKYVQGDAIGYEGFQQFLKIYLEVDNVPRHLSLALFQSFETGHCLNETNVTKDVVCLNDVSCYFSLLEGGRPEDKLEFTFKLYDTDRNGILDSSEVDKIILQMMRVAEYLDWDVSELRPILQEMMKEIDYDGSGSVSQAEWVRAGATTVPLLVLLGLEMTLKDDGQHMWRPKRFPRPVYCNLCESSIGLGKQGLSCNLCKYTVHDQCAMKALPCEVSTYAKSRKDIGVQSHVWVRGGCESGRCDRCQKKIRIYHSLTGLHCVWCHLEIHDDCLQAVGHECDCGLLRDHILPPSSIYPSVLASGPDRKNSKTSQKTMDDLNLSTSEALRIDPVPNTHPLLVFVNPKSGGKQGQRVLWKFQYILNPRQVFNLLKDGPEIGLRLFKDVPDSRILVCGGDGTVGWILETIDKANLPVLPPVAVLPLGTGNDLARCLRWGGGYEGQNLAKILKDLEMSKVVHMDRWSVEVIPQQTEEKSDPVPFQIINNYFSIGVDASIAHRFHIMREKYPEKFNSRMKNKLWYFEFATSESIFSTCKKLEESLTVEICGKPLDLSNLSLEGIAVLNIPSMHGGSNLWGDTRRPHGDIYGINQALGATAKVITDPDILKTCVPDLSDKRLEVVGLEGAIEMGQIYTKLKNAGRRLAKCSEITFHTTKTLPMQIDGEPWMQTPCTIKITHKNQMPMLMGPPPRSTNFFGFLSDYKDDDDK
Type: biochemical
How it was run: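 Activity was measured as ADP production, detected by luciferase luminescence after removal of unused ATP. The enzyme was baculovirus-expressed full-length human DGKα with a C-terminal FLAG tag. The substrate was 1,2-dioleoyl-sn-glycerol in detergent micelles, and compounds came from 100× DMSO solutions.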
With Cc1ccc2oc(C3(C)CCN(c4c(C#N)c(=O)n(C)c5cc(OCC6(O)CC6)ccc45)CC3)nc2c1 [Example 239, 7-[(1-hydroxycyclopropyl)methoxy]-1-methyl-4-[4-methyl-4-(5-methyl-1,3-benzoxazol-2-yl)piperidin-1-yl]-2-oxo-1,2-dihydroquinoline-3-carbonitrile] the IC50 was 0.0006 µM. With COc1ccc2c(N3CCC(c4nc5ccccc5s4)CC3)c(C#N)c(=O)n(C)c2c1 [Example 240, 4-[4-(1,3-benzothiazol-2-yl)piperidin-1-yl]-7-methoxy-1-methyl-2-oxo-1,2-dihydroquinoline-3-carbonitrile] the IC50 was 0.0025 µM. Molecule Cc1ccc2oc(C3(C)CCN(c4c(C#N)c(=O)n(C)c5cc(OC6COC6)ccc45)CC3)nc2c1 [Example 241, 1-methyl-4-[4-methyl-4-(5-methyl-1,3-benzoxazol-2-yl)piperidin-1-yl]-7-[(oxetan-3-yl)oxy]-2-oxo-1,2-dihydroquinoline-3-carbonitrile] has an IC50 of 0.0025 µM. In the case of Cc1ccc2oc(C3(C)CCN(c4c(C#N)c(=O)n(C)c5ccc(O)cc45)CC3)nc2c1 [Example 242, 6-hydroxy-1-methyl-4-[4-methyl-4-(5-methyl-1,3-benzoxazol-2-yl)piperidin-1-yl]-2-oxo-1,2-dihydroquinoline-3-carbonitrile], the IC50 is reported as 0.0027 µM. Work on COc1ccc2c(N3CCC(c4nc5ccccc5o4)CC3)c(C#N)c(=O)n(C)c2c1 [Example 243, 4-[4-(1,3-benzoxazol-2-yl)piperidin-1-yl]-7-methoxy-1-methyl-2-oxo-1,2-dihydroquinoline-3-carbonitrile] yielded an IC50 of 0.0035 µM. For Cc1ccc2oc(C3(C)CCN(c4c(C#N)c(=O)n(C)c5cc(OC6CC6)ccc45)CC3)nc2c1 [Example 244, 7-(cyclopropyloxy)-1-methyl-4-[4-methyl-4-(5-methyl-1,3-benzoxazol-2-yl)piperidin-1-yl]-2-oxo-1,2-dihydroquinoline-3-carbonitrile], the IC50 was 0.0046 µM. Cc1ccc2oc(C3(C)CCN(c4c(C#N)c(=O)n(C)c5c(C6COC6)cccc45)CC3)nc2c1 [Example 245, 1-methyl-4-[4-methyl-4-(5-methyl-1,3-benzoxazol-2-yl)piperidin-1-yl]-8-(oxetan-3-yl)-2-oxo-1,2-dihydroquinoline-3-carbonitrile] was tested, and the IC50 was 0.0059 µM. COc1ccc2c(c1)c(N1CCC(C)(c3nc4cc(C)ccc4o3)CC1)c(C#N)c(=O)n2C [Example 246, 6-methoxy-1-methyl-4-[4-methyl-4-(5-methyl-1,3-benzoxazol-2-yl)piperidin-1-yl]-2-oxo-1,2-dihydroquinoline-3-carbonitrile] was tested, and the IC50 was 0.0065 µM. In the case of Cc1ccc2oc(C3(C)CCN(c4c(C#N)c(=O)n(C)c5cc(OC6CCC6)ccc45)CC3)nc2c1 [Example 247, 7-(cyclobutyloxy)-1-methyl-4-[4-methyl-4-(5-methyl-1,3-benzoxazol-2-yl)piperidin-1-yl]-2-oxo-1,2-dihydroquinoline-3-carbonitrile], the IC50 is reported as 0.0069 µM. For COc1ccc2c(N3CCC(C)(c4nc5cc(C)ccc5o4)CC3)c(C#N)c(=O)n(C)c2c1 [Example 248, 7-methoxy-1-methyl-4-[4-methyl-4-(5-methyl-1,3-benzoxazol-2-yl)piperidin-1-yl]-2-oxo-1,2-dihydroquinoline-3-carbonitrile], the IC50 was 0.0069 µM. Cc1ccc2oc(C3(C)CCN(c4c(C#N)c(=O)n(C)c5cc(C#N)ccc45)CC3)nc2c1 [Example 249, 1-methyl-4-[4-methyl-4-(5-methyl-1,3-benzoxazol-2-yl)piperidin-1-yl]-2-oxo-1,2-dihydroquinoline-3,7-dicarbonitrile] showed an IC50 of 0.0072 µM. Work on Cc1ccc2oc(C3(C)CCN(c4c(C#N)c(=O)n(C)c5cc(C6CC6)ccc45)CC3)nc2c1 [Example 250, 7-cyclopropyl-1-methyl-4-[4-methyl-4-(5-methyl-1,3-benzoxazol-2-yl)piperidin-1-yl]-2-oxo-1,2-dihydroquinoline-3-carbonitrile] yielded an IC50 of 0.0091 µM. For Cc1ccc2oc(C3(C)CCN(c4c(C#N)c(=O)n(C)c5cc(OCC6(C#N)CC6)ccc45)CC3)nc2c1 [Example 251, 7-[(1-cyanocyclopropyl)methoxy]-1-methyl-4-[4-methyl-4-(5-methyl-1,3-benzoxazol-2-yl)piperidin-1-yl]-2-oxo-1,2-dihydroquinoline-3-carbonitrile], the IC50 was 0.0093 µM. Cc1ccc2oc(C3(C)CCN(c4c(C#N)c(=O)n(C)c5cc(C6CC(F)(F)C6)ccc45)CC3)nc2c1 [Example 252, 7-(3,3-difluorocyclobutyl)-1-methyl-4-[4-methyl-4-(5-methyl-1,3-benzoxazol-2-yl)piperidin-1-yl]-2-oxo-1,2-dihydroquinoline-3-carbonitrile] was tested, and the IC50 was 0.013 µM. In the case of Cc1ccc2oc(C3(C)CCN(c4c(C#N)c(=O)n(C)c5c(OC6COC6)cccc45)CC3)nc2c1 [Example 253, 1-methyl-4-[4-methyl-4-(5-methyl-1,3-benzoxazol-2-yl)piperidin-1-yl]-8-[(oxetan-3-yl)oxy]-2-oxo-1,2-dihydroquinoline-3-carbonitrile], the IC50 is reported as 0.014 µM. COc1ccc2c(N3CCC(c4nc5cc(F)c(F)cc5o4)CC3)c(C#N)c(=O)n(C)c2c1 [Example 254, 4-[4-(5,6-difluoro-1,3-benzoxazol-2-yl)piperidin-1-yl]-7-methoxy-1-methyl-2-oxo-1,2-dihydroquinoline-3-carbonitrile] was tested, and the IC50 was 0.015 µM. Molecule Cc1ccc2c(N3CCC(c4ccccc4)CC3)c(C#N)c(=O)n(C)c2c1 [Example 255, 1,7-dimethyl-2-oxo-4-(4-phenylpiperidin-1-yl)-1,2-dihydroquinoline-3-carbonitrile] has an IC50 of 0.018 µM. COc1ccc2c(N3CCC(c4ccccc4)CC3)c(C#N)c(=O)n(C)c2c1 [Example 256, 7-methoxy-1-methyl-2-oxo-4-(4-phenylpiperidin-1-yl)-1,2-dihydroquinoline-3-carbonitrile] showed an IC50 of 0.025 µM. CCCOc1ccc2c(N3CCC(C)(c4nc5cc(C)ccc5o4)CC3)c(C#N)c(=O)n(C)c2c1 [Example 257, 1-methyl-4-[4-methyl-4-(5-methyl-1,3-benzoxazol-2-yl)piperidin-1-yl]-2-oxo-7-propoxy-1,2-dihydroquinoline-3-carbonitrile] was tested, and the IC50 was 0.026 µM. With COc1ccc2c(N3CCC(c4nc5ccc(Cl)cc5o4)CC3)c(C#N)c(=O)n(C)c2c1 [Example 258, 4-[4-(6-chloro-1,3-benzoxazol-2-yl)piperidin-1-yl]-7-methoxy-1-methyl-2-oxo-1,2-dihydroquinoline-3-carbonitrile] the IC50 was 0.029 µM. Work on COc1ccc2c(N3CCC(c4nc5cc(Cl)ccc5o4)CC3)c(C#N)c(=O)n(C)c2c1 [Example 259, 4-[4-(5-chloro-1,3-benzoxazol-2-yl)piperidin-1-yl]-7-methoxy-1-methyl-2-oxo-1,2-dihydroquinoline-3-carbonitrile] yielded an IC50 of 0.029 µM. With COc1cccc2c(N3CCC(C)(c4nc5cc(C)ccc5o4)CC3)c(C#N)c(=O)n(C)c12 [Example 260, 8-methoxy-1-methyl-4-[4-methyl-4-(5-methyl-1,3-benzoxazol-2-yl)piperidin-1-yl]-2-oxo-1,2-dihydroquinoline-3-carbonitrile] the IC50 was 0.035 µM. Cc1ccc2oc(C3(C)CCN(c4c(C#N)c(=O)n(C)c5cc(C6COC6)ccc45)CC3)nc2c1 [Example 261, 1-methyl-4-[4-methyl-4-(5-methyl-1,3-benzoxazol-2-yl)piperidin-1-yl]-7-(oxetan-3-yl)-2-oxo-1,2-dihydroquinoline-3-carbonitrile] showed an IC50 of 0.035 µM. Cc1ccc2oc(C3(C)CCN(c4c(C#N)c(=O)n(C)c5c(OC6CC6)cccc45)CC3)nc2c1 [Example 262, 8-(cyclopropyloxy)-1-methyl-4-[4-methyl-4-(5-methyl-1,3-benzoxazol-2-yl)piperidin-1-yl]-2-oxo-1,2-dihydroquinoline-3-carbonitrile] was tested, and the IC50 was 0.036 µM. With Cc1ccc2oc(C3(C)CCN(c4c(C#N)c(=O)n(C)c5c(C)cccc45)CC3)nc2c1 [Example 263, 1,8-dimethyl-4-[4-methyl-4-(5-methyl-1,3-benzoxazol-2-yl)piperidin-1-yl]-2-oxo-1,2-dihydroquinoline-3-carbonitrile] the IC50 was 0.042 µM. Cn1c(=O)c(C#N)c(N2CCC(c3ccccc3)CC2)c2ccc(OC3CC3)cc21 [Example 264, 7-(cyclopropyloxy)-1-methyl-2-oxo-4-(4-phenylpiperidin-1-yl)-1,2-dihydroquinoline-3-carbonitrile] showed an IC50 of 0.049 µM. In the case of COCCc1cccc2oc(C3CCN(c4c(C#N)c(=O)n(C)c5ccccc45)CC3)nc12 [Example 265, 4-{4-[4-(2-methoxyethyl)-1,3-benzoxazol-2-yl]piperidin-1-yl}-1-methyl-2-oxo-1,2-dihydroquinoline-3-carbonitrile], the IC50 is reported as 0.049 µM. With CC[C@H](C)c1ccc2c(N3CCC(C)(c4nc5cc(C)ccc5o4)CC3)c(C#N)c(=O)n(C)c2c1 [Example 266, 7-[(2S)-butan-2-yl]-1-methyl-4-[4-methyl-4-(5-methyl-1,3-benzoxazol-2-yl)piperidin-1-yl]-2-oxo-1,2-dihydroquinoline-3-carbonitrile] the IC50 was 0.053 µM. Work on Cc1ccc2oc(C3(C)CCN(c4c(C#N)c(=O)n(C)c5ccc(OC6COC6)cc45)CC3)nc2c1 [Example 267, 1-methyl-4-[4-methyl-4-(5-methyl-1,3-benzoxazol-2-yl)piperidin-1-yl]-6-[(oxetan-3-yl)oxy]-2-oxo-1,2-dihydroquinoline-3-carbonitrile] yielded an IC50 of 0.064 µM. Cc1ccc2oc(C3(C)CCN(c4c(C#N)c(=O)n(C)c5ccc(OCC6(C#N)CC6)cc45)CC3)nc2c1 [Example 268, 6-[(1-cyanocyclopropyl)methoxy]-1-methyl-4-[4-methyl-4-(5-methyl-1,3-benzoxazol-2-yl)piperidin-1-yl]-2-oxo-1,2-dihydroquinoline-3-carbonitrile] showed an IC50 of 0.065 µM. Work on Cc1ccc2oc(C3(C)CCN(c4c(C#N)c(=O)n(C)c5cc(N6C[C@H](O)CC6=O)ccc45)CC3)nc2c1 [Example 269, 7-[(4R)-4-hydroxy-2-oxopyrrolidin-1-yl]-1-methyl-4-[4-methyl-4-(5-methyl-1,3-benzoxazol-2-yl)piperidin-1-yl]-2-oxo-1,2-dihydroquinoline-3-carbonitrile] yielded an IC50 of 0.071 µM.
